From patent publication US10526347B2, “3-(3H-imidazo[4,5-B]pyridin-2-yl)-1H-pyrazolo[3,4-B]pyridine and therapeutic uses thereof” (Samumed, LLC, priority 2014, dated 2020)

Columns and labels:
Assay type in all cases: cell-based
[1] = tested on: Wnt activity (SW480 colon carcinoma cells stably expressing the Sp5-Luc reporter gene); assay: Sp5-Luc reporter gene screening assay for Wnt activity; conditions: Homo sapiens
Outline: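 The SW480 cells carry a lentiviral luciferase reporter driven by a Sp5 promoter with eight TCF/LEF sites. They were plated at 10,000 cells/well in 10% FCS overnight, then pinned with 50 nl of 3-fold dilutions (10 mM top source concentration) into 50 μl.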

[2] = tested on: primary human mesenchymal stem cells (hMSCs); assay: Chondrogenesis induction in primary human mesenchymal stem cells (chondrogenic nodules, Rhodamine B / Nile Red); conditions: 6 days; for EC (100% of TGF-beta3 activity): Homo sapiens, Mesenchymal stem cells, 144 h, concentration required to induce chondrogenesis equivalent to TGF-β3 10 ng/mL, read-out: Conc (nM) of 100% TGF-β3 activity; for Max. Activity as % TGF-β3 activity: positive control TGF-β3 10 ng/mL, nodule number normalized to DMSO
Description: The above synthesized compounds were screened using primary human mesenchymal stem cells (hMSCs) to determine their ability to induce chondrogenesis (process by which cartilage is developed).
Primary human mesenchymal stem cells (hMSCs) were purchased from Lonza (Walkersville, Md.) and expanded in Mesenchymal Stem Cell Growth Media (Lonza). Cells between passage 3 and 6 were used for the experiments.
Each compound was dissolved in DMSO as a 10 mM stock and used to prepare compound source plates. Serial dilution (1:3, 6-point dose-response curves from 2700 nM to 10 nM) and compound transfer was performed using the ECHO 550 (Labcyte, Sunnyvale, Calif.) into 96-well clear bottom assay plates (Greiner Bio-One) with appropriate DMSO backfill for a final DMSO concentration of 0.03%. hMSCs were plated at 20,000 cells/well in 250 μL/well Incomplete Chondrogenic Induction Medium (Lonza; DMEM, dexamethasone, ascorbate, insulin-transferrin-selenium [ITS supplement], gentamycin-amphotericin [GA-1000], sodium pyruvate, proline and L-glutamine). TGF-β3 (10 ng/mL) was used as a positive control for differentiation while negative control wells were treated with 75 nL DMSO for normalization and calculating EC50 values. Cells were incubated at 37° C. and 5% CO2 for 6 days. To image chondrogenic nodules, the cells were fixed using 4% formaldehyde (Electron Microscopy Sciences), and stained with 2 μg/mL Rhodamine B (Sigma-Aldrich) and 20 μM Nile Red (Sigma-Aldrich) [Johnson K., et. al, A Stem Cell-Based Approach to Cartilage Repair, Science, (2012), 336(6082). 717-721]. The nodules imaged (4 images per well at 4× magnification) by excitation at 531 nm and emission at 625 nm and quantified using the CellInsight CX5 (Thermo Scientific). Number of nodules in each well was normalized to the average of 3 DMSO treated wells on the same plate using Excel (Microsoft Inc.). The normalized averages (fold change over DMSO) of 3 replicate wells for each compound concentration were calculated. Due to solubility limitations of some of the compounds, curve fitting was incomplete leading to inaccurate EC50 determinations.
Using TGF-β3 as a positive control, the concentration of test compounds required to induce equivalent levels of chondrogenesis is reported. In addition, the maximum activity of each compound and the respective dose that each compound reached maximum chondrogenesis activity is reported.

[3] = tested on: primary human fibroblasts derived from IPF patients (LL29 cells); assay: Inhibition of the fibrotic process in TGF-β1 treated IPF patient fibroblasts (αSMA staining); conditions: Fibroblast, 96 h, LL29 cells treated with TGF-β1 (20 ng/mL), 4 days, read-out: Inhibition of fibrosis EC50
Outline: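 LL29 IPF lung fibroblasts in F12 with 1% FBS, compound (11-point, 10 μM to 1.87 nM, 0.1% DMSO) plus TGF-β1 20 ng/mL for 4 days at 37° C. αSMA-positive % of SYTOX-negative cells by immunofluorescence imaging, normalized to TGF-β1 wells; EC50 from non-linear regression of triplicates.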

SMILES | IC50 [1] | EC (100% of TGF-beta3 activity) [2] | EC50 [3] | Max. Activity as % TGF-β3 activity [2]
CCC(=O)Nc1cncc(-c2cnc3[nH]nc(-c4nc5c(-c6cccs6)ccnc5[nH]4)c3c2)c1 [Compound 285, N-(5-(3-(7-(Thiophen-2-yl)-3H-imidazo[4,5-b]pyridin-2-yl)-1H-pyrazolo[3,4-b]pyridin-5-yl)pyridin-3-yl)propionamide] | 3.3 nM | 48.9 nM | ≤ 9 nM | 
Cc1cn(-c2ccnc3[nH]c(-c4n[nH]c5ncc(-c6cncc(NC(=O)CC(C)C)c6)cc45)nc23)cn1 [Compound 160, 3-Methyl-N-(5-(3-(7-(4-methyl-1H-imidazol-1-yl)-3H-imidazo[4,5-b]pyridin-2-yl)-1H-pyrazolo[3,4-b]pyridin-5-yl)pyridin-3-yl)butanamide] | 8.3 nM | 26.8 nM |  | 
CCCC(=O)Nc1cncc(-c2cnc3[nH]nc(-c4nc5c(-c6ccsc6)ccnc5[nH]4)c3c2)c1 [Compound 249, N-(5-(3-(7-(Thiophen-3-yl)-3H-imidazo[4,5-b]pyridin-2-yl)-1H-pyrazolo[3,4-b]pyridin-5-yl)pyridin-3-yl)butyramide] | 2.7 nM | 31.9 nM | 35 nM | 
Cc1ccc(-c2ccnc3[nH]c(-c4n[nH]c5ncc(-c6cncc(N)c6)cc45)nc23)s1 [Compound 339, 5-(3-(7-(5-Methylthiophen-2-yl)-3H-imidazo[4,5-b]pyridin-2-yl)-1H-pyrazolo[3,4-b]pyridin-5-yl)pyridin-3-amine] | 2.6 nM | 43.2 nM | 40 nM | 
Fc1cccc(-c2ccnc3[nH]c(-c4n[nH]c5ncc(-c6cn[nH]c6)cc45)nc23)c1 [Compound 911, 3-(7-(3-Fluorophenyl)-3H-imidazo[4,5-b]pyridin-2-yl)-5-(1H-pyrazol-4-yl)-1H-pyrazolo[3,4-b]pyridine] | 30 nM | 110 nM | 29 nM | 100%
Cc1ncc(-c2cnc3[nH]nc(-c4nc5c(-c6cccc(F)c6)ccnc5[nH]4)c3c2)n1C [Compound 913, 5-(1,2-Dimethyl-1H-imidazol-5-yl)-3-(7-(3-fluorophenyl)-3H-imidazo[4,5-b]pyridin-2-yl)-1H-pyrazolo[3,4-b]pyridine] | 66 nM | 117 nM | 216 nM | 300%
CC(C)Nc1cncc(-c2cnc3[nH]nc(-c4nc5c(-c6cccnc6)ccnc5[nH]4)c3c2)c1 [Compound 75, N-Isopropyl-5-(3-(7-(pyridin-3-yl)-3H-imidazo[4,5-b]pyridin-2-yl)-1H-pyrazolo[3,4-b]pyridin-5-yl)pyridin-3-amine] | 45.4 nM | 58.5 nM |  | 
CCCCC(=O)Nc1cncc(-c2cnc3[nH]nc(-c4nc5c(-c6cc(F)cc(NCCN(C)C)c6)ccnc5[nH]4)c3c2)c1 [Compound 432, N-(5-(3-(7-(3-((2-(Dimethylamino)ethyl)amino)-5-fluorphenyl)-3H-imidazo[4,5-b]pyridin-2-yl)-1H-pyrazolo[3,4-b]pyridin-5-yl)pyridin-3-yl)pentanamide] | 21.7 nM | 57 nM |  | 
CCC(=O)Nc1cncc(-c2cnc3[nH]nc(-c4nc5c(N6CCCCC6)ccnc5[nH]4)c3c2)c1 [Compound 133, N-(5-(3-(7-(Piperidin-1-yl)-3H-imidazo[4,5-b]pyridin-2-yl)-1H-pyrazolo[3,4-b]pyridin-5-yl)pyridin-3-yl)propionamide] | 36.6 nM | 317 nM | 853 nM | 300%
Nc1cncc(-c2cnc3[nH]nc(-c4nc5c(-c6ccccc6F)ccnc5[nH]4)c3c2)c1 [Compound 45, 5-(3-(7-(2-Fluorophenyl)-3H-imidazo[4,5-b]pyridin-2-yl)-1H-pyrazolo [3,4-b]pyridin-5-yl)pyridin-3-amine] | 3.7 nM | 59.9 nM | ≤ 9 nM | 300%
Cc1ccncc1-c1cnc2[nH]nc(-c3nc4c(-c5cc(F)cc(CNS(C)(=O)=O)c5)ccnc4[nH]3)c2c1 [Compound 393, N-(3-Fluoro-5-(2-(5-(4-methylpyridin-3-yl)-1H-pyrazolo[3,4-b]pyridin-3-yl)-3H-imidazo[4,5-b]pyridin-7-yl)benzyl)methanesulfonamide] | 20.6 nM | 140 nM | 674 nM | 100%
O=C(Nc1cncc(-c2cnc3[nH]nc(-c4nc5c(-c6ccc(F)cc6)ccnc5[nH]4)c3c2)c1)C1CCC1 [Compound 38, N-(5-(3-(7-(4-Fluorophenyl)-3H-imidazo[4,5-b]pyridin-2-yl)-1H-pyrazolo[3,4-b]pyridin-5-yl)pyridin-3-yl)cyclobutanecarboxamide] | 11.5 nM | 48.6 nM | 118 nM | 
